What was measured:
[1] = molecular target: T1, hTAS1R2/hTAS1R3 (Homo sapiens, UniProt Q7RTX0+Q8TE23); test: Calcium assay (GCaMP6S) in HEK293T-Gα16gust44 cells transfected with hTAS1R2-FLAG and hTAS1R3-FLAG; assay type: cell-based; conditions: HEK293T-Gα16gust44 cells transiently transfected with GCaMP6S
T1 construct: expressed in transfected cells; host or cells: HEK293T cells stably expressing Gα16gust44, transiently transfected
T1 sequence (Q8TE23 20-839): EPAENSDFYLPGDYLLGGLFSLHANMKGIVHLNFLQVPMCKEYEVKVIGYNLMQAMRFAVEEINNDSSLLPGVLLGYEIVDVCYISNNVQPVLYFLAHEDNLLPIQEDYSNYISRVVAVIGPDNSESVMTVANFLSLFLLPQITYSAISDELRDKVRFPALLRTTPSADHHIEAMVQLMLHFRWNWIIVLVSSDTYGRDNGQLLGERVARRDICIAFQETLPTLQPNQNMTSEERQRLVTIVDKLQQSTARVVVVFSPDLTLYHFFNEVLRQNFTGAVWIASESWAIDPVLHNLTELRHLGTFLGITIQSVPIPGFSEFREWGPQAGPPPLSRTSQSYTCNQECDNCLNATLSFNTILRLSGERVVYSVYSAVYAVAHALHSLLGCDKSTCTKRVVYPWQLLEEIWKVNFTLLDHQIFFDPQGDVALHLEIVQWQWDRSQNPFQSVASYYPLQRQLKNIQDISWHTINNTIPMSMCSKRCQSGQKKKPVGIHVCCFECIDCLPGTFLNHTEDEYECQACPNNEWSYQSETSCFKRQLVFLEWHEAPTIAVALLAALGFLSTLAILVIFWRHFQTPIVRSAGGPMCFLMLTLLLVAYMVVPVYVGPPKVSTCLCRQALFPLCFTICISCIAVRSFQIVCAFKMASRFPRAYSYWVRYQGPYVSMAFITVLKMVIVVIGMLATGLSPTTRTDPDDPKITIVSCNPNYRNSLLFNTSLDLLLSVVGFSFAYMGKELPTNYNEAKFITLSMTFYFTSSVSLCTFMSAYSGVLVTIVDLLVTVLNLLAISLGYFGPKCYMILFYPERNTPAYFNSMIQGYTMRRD
T1 sequence (Q7RTX0 21-852): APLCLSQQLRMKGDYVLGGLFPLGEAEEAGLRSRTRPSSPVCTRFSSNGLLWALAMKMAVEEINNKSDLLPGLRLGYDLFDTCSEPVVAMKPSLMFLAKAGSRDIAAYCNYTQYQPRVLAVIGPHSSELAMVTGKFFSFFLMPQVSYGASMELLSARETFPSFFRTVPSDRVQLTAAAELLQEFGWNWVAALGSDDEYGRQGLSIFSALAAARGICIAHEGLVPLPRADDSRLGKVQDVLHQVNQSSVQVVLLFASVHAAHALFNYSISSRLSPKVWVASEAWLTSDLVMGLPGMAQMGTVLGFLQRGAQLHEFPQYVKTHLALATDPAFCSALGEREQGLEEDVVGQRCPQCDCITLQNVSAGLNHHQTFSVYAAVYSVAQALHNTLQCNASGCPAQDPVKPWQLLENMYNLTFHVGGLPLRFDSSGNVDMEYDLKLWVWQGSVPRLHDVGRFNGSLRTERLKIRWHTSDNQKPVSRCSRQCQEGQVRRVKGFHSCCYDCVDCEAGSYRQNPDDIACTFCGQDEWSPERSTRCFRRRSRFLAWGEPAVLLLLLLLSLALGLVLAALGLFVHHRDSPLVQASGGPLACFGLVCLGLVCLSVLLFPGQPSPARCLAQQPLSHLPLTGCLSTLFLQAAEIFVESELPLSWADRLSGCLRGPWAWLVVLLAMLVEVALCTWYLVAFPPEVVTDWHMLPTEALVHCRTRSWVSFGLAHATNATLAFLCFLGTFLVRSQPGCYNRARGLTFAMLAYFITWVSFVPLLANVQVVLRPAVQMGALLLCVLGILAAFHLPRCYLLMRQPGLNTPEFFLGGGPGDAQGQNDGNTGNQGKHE
Description: (§1) We used a calcium imaging assay to establish dose–response curves for the sweet taste receptor hTAS1R2/hTAS1R3 and determine EC50 values for the sweet stimuli previously tested in spectrofluorimetric experiments. We cloned the cDNAs coding hTAS1R2 and hTAS1R3 subunits into pcDNA6 and pcDNA4 expression plasmids, respectively, and we added FLAG tag to C-terminus of each construct to measure protein expression level by immunocytochemistry as described previously. HEK293T cells stably transfected with Gα16gust44 were seeded at a density of 0.35 × 10^6 cells per well into 96-well black walled, clear bottom microtiter plates (Falcon) in high-glucose DMEM supplemented with 2 mM GlutaMAX, 10% dialyzed foetal bovine serum, penicillin/streptomycin and G418 (400 µg/mL) at 37 °C and 6.3% CO2, in a humidified atmosphere. After 48 h, the cells were transiently transfected with each TAS1R subunit (60 ng/well for each plasmid) and plasmid pGP-CMV-GCaMP6S (Addgene #40753, 50 ng per well) coding for a green fluorescent protein-based calcium indicator, using Fugene HD (0.4 µL/well). After a further 24 h incubation, the cells were washed twice with buffer C1 and then stimulated with sweet tasting compounds. After excitation at 488 nm, calcium responses were recorded at 510 nm using a Molecular Devices FlexStation 3 system. Acquisition was made simultaneously from 8 wells corresponding to the range of taste solutions. We averaged the responses of 18 wells receiving the same stimulus one three independent experiments. We subtracted the mean calcium traces of mock-transfected cells stimulated with the same concentration of stimulus. Plots of the fluorescence variation amplitude versus concentration were fitted by four-parameter logistic nonlinear regression allowing us to calculate the EC50 values of activation.

[2] = molecular target: T2, hTAS1R3 (Homo sapiens, UniProt Q7RTX0); test: Calcium assay (GCaMP6S) in HEK293T-Gα16gust44 cells transfected with hTAS1R3-FLAG alone; assay type: cell-based; conditions: HEK293T-Gα16gust44 cells transiently transfected with GCaMP6S and hTAS1R3-FLAG alone
T2 construct: expressed in transfected cells; host or cells: HEK293T cells stably expressing Gα16gust44, transiently transfected
T2 sequence (Q7RTX0 21-852): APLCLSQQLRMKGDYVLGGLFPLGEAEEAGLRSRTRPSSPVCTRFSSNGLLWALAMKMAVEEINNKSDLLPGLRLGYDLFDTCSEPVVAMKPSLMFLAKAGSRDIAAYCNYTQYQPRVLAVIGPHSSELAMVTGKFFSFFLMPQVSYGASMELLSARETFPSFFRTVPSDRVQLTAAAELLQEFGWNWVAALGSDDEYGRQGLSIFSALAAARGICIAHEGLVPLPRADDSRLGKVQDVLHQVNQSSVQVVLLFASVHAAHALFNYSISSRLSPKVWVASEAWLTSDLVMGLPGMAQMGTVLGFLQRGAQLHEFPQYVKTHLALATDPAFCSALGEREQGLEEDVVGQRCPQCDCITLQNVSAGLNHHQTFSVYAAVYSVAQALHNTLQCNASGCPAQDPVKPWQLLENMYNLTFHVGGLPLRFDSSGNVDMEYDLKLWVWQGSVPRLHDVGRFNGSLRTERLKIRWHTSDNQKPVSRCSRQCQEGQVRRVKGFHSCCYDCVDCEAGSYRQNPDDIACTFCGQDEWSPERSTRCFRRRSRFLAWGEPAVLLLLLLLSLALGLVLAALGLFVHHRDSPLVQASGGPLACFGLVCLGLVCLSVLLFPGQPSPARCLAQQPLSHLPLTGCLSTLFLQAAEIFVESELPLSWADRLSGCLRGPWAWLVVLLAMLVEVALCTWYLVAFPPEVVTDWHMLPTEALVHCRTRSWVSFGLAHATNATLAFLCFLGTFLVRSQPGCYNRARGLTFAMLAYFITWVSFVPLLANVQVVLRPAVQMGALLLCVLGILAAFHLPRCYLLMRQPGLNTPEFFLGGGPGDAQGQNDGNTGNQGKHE
Description: as §1

[3] = molecular target: T3, hTAS1R2 (Homo sapiens, UniProt Q8TE23); test: Calcium assay (GCaMP6S) in HEK293T-Gα16gust44 cells transfected with hTAS1R2-FLAG alone; assay type: cell-based; conditions: HEK293T-Gα16gust44 cells transiently transfected with GCaMP6S and hTAS1R2-FLAG alone
T3 sequence (Q8TE23 20-839): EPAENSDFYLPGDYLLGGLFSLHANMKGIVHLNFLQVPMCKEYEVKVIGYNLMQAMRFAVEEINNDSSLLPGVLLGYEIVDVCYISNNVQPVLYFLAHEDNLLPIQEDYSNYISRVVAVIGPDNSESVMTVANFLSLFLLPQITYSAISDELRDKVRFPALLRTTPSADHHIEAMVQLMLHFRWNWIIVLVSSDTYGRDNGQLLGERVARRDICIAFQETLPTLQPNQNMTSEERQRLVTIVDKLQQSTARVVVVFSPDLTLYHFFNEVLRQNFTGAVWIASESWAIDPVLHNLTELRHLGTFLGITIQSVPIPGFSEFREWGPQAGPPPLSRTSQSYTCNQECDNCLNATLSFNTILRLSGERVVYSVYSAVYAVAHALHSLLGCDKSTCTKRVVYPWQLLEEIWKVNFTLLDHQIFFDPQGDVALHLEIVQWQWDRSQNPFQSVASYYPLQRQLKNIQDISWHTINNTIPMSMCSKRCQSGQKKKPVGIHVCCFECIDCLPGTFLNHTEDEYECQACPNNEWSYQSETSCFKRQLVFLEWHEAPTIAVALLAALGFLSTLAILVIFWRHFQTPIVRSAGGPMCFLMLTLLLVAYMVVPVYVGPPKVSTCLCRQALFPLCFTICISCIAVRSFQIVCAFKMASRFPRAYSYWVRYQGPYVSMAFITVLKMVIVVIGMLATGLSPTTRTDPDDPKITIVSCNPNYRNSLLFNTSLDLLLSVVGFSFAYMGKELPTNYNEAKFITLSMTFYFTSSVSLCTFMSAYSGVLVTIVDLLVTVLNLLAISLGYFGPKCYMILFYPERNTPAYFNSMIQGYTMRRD
Description: as §1, with “After a further 24 h incubation, the cells were washed twice with buffer C1 and then stimulated with sweet tasting compounds.” left out, “Acquisition was made simultaneously from 8 wells corresponding to the range of taste solutions. We averaged the responses of 18 wells receiving the same stimulus one three independent experiments. We subtracted the mean calcium traces of mock-transfected cells stimulated with the same concentration of stimulus.” left out

[4] = molecular target: T3, hTAS1R2; test: Intrinsic tryptophan fluorescence ligand binding to purified detergent-solubilized hTAS1R2; parameters: made in house; conditions: purified FLAG-tagged hTAS1R2 0.10 µM in PBS, 0.1% LMNG, 20 °C; λex 280 nm, λem 340 nm
Procedure: Intrinsic fluorescence spectra were recorded with a Cary Eclipse spectrofluorimeter (Varian Instruments, Les Ulis, France) equipped with a Peltier temperature control unit. The temperature was maintained at 20 °C. FLAG-tagged hTAS1R2 protein (0.10 µM in PBS, 0.1% LMNG buffer) was excited at 280 nm, and the emission spectra were recorded from 300 to 400 nm, with a 10 nm bandwidth for both excitation and emission in the presence and absence of ligands. The sweetener solutions were freshly prepared in PBS-0.1% LMNG buffer. Successive aliquots of ligand solutions were added to 400 µL of the FLAG-tagged hTAS1R2 solution. […] The fluorescence measurements were corrected for bleaching and nonspecific buffer quenching. The dissociation constants (Kd) were calculated from a plot of the fluorescence intensity measured at the maximum emission wavelength (340 nm) versus the concentration of total ligand obtained with a standard nonlinear regression method using SigmaPlot software (Systat Software Inc., San Jose, CA, USA). The reported Kd values are the average of triplicate measurements performed on at least three independently purified protein samples.

[5] = molecular target: the molecule itself; test: SEC-MALS; pooled gel filtration peak 4 (fractions 14-16) of FLAG-tagged hTAS1R2; Superdex 200 Increase 3.2/300, PBS with 0.1% LMNG, pH 7.3, 0.1 mL/min; MALS, RI and UV (280 nm) detectors; protein-detergent complexes

| Molecule | EC50 [1] [µM] | EC50 hTAS1R3 [2] | EC50 [3] [µM] | Kd [4] [µM] | stoichiometry N [5] |
| --- | --- | --- | --- | --- | --- |
| O=S(=O)(O)NC1CCCCC1 [Cyclamate-Na, cyclamate-Na] | 767 ± 83 | n.r. |  |  |  |
| C=C(C)C1CC=C(/C=N/O)CC1 (stereo in doubt) [Perillartine, perillartine] | 2.54 ± 0.48 | n.r. | 61 ± 13 | 373 ± 110 |  |
| CC1=CC(=O)NS(=O)(=O)O1 [Acesulfame-K, acesulfame-K] | 213 ± 59 | n.r. |  | 164 ± 53 |  |
| COC(=O)[C@H](Cc1ccccc1)NC(=O)[C@H](CC(=O)O)NCCC(C)(C)C [Neotame, neotame] | 0.9 ± 0.09 | n.r. |  | 2.78 ± 0.69 |  |
| OC[C@H]1O[C@H](O[C@]2(CCl)O[C@H](CCl)[C@@H](O)[C@@H]2O)[C@H](O)[C@@H](O)[C@H]1Cl [Sucralose, sucralose] | 36 ± 2 | n.r. |  | 29 ± 8 |  |
| FLAG-tagged human TAS1R2 (taste receptor type 1, member 2) (receptor, UniProt Q8TE23 20-839, looked up, human TAS1R2 (taste receptor type 1, member 2), UniProtKB Q8TE23, full-length protein from a codon-optimised synthetic gene; the purified protein is still detected and captured by anti-FLAG M2; Theoretical mass of FLAG-tagged hTAS1R2 printed as 96.2 kDa; In LMNG detergent; also called hTAS1R2; FLAG-hTAS1R2; not shown: FLAG, N-terminal, kept) EPAENSDFYLPGDYLLGGLFSLHANMKGIVHLNFLQVPMCKEYEVKVIGYNLMQAMRFAVEEINNDSSLLPGVLLGYEIVDVCYISNNVQPVLYFLAHEDNLLPIQEDYSNYISRVVAVIGPDNSESVMTVANFLSLFLLPQITYSAISDELRDKVRFPALLRTTPSADHHIEAMVQLMLHFRWNWIIVLVSSDTYGRDNGQLLGERVARRDICIAFQETLPTLQPNQNMTSEERQRLVTIVDKLQQSTARVVVVFSPDLTLYHFFNEVLRQNFTGAVWIASESWAIDPVLHNLTELRHLGTFLGITIQSVPIPGFSEFREWGPQAGPPPLSRTSQSYTCNQECDNCLNATLSFNTILRLSGERVVYSVYSAVYAVAHALHSLLGCDKSTCTKRVVYPWQLLEEIWKVNFTLLDHQIFFDPQGDVALHLEIVQWQWDRSQNPFQSVASYYPLQRQLKNIQDISWHTINNTIPMSMCSKRCQSGQKKKPVGIHVCCFECIDCLPGTFLNHTEDEYECQACPNNEWSYQSETSCFKRQLVFLEWHEAPTIAVALLAALGFLSTLAILVIFWRHFQTPIVRSAGGPMCFLMLTLLLVAYMVVPVYVGPPKVSTCLCRQALFPLCFTICISCIAVRSFQIVCAFKMASRFPRAYSYWVRYQGPYVSMAFITVLKMVIVVIGMLATGLSPTTRTDPDDPKITIVSCNPNYRNSLLFNTSLDLLLSVVGFSFAYMGKELPTNYNEAKFITLSMTFYFTSSVSLCTFMSAYSGVLVTIVDLLVTVLNLLAISLGYFGPKCYMILFYPERNTPAYFNSMIQGYTMRRD |  |  |  |  | 2 |

From article PMC8593021, “Biophysical and functional characterization of the human TAS1R2 sweet taste receptor overexpressed in a HEK293S inducible cell line” (Scientific Reports, 2021)
